Assay results as given in ChEMBL document CHEMBL5120977, “Orexin Receptor Agonists as Possible Treatment for Narcolepsy and Idiopathic Hypersomnia” (ACS Med Chem Lett, 2022).
pEC50: −log10 of the molar value.

Target: T1, Orexin receptor type 2 (Homo sapiens, UniProt O43614)
T1 sequence (O43614 whole entry): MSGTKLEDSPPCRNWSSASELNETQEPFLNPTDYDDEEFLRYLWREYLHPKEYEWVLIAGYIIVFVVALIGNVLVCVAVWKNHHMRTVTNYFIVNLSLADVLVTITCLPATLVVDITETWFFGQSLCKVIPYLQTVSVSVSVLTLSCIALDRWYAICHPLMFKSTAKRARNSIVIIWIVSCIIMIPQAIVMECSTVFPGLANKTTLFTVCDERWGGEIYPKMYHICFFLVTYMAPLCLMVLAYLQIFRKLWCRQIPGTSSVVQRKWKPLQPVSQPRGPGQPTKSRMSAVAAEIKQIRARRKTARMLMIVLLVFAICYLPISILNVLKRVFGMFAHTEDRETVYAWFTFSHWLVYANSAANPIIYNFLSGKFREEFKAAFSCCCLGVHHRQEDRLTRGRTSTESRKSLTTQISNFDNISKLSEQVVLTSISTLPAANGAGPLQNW
Assay: Agonist activity at human OX2R expressed in CHO cells
Type: functional, cell-based

CCN(C(=O)N[C@@H](C1CCCC(F)(F)C1)C(F)(F)F)[C@H](C)c1cccc(-c2cn3ccnc3c(OC)n2)c1 (stereo partly specified)
pEC50: 9.05
